For experiment [1], the system named is Hela cells. Nature of the experiment: Cell apoptosis by double staining of Annexin V and propidium iodide, Hela. The format is cell-based, human. On the procedure: (§1) The supernatant is removed and the cells are suspended again by 100 μl binding buffer. Annexin V-FITC (BD Pharmgen Company) is added to which final concentration is 2 μg/ml, and the cells are incubated at the room temperature. 10 minutes later, 400 μl binding buffer is supplemented. The cells are transferred into Flow Analyzer Tube, and 1 μg propidium iodide (Sigma Company) is added into each of the tube. The cells are analyzed by Flow Cytometer within 30 minutes. The experiment is repeated three times for each cell line.
(§2) The activity to induce the tumor cell apoptosis of the tumor-targeted TNF-related apoptosis-inducing ligand's variant NGR-TRAIL is appraised using COLO-205, HCT-15 and HT-29 cells separately (FIG. 4). After induced by series concentration gradient TRAIL variant or TRAIL, the tumor cells are detected by Flow Cytometer according to the double staining method of Annexin V-FITC and Pl. […] The sensibility of Hela cell to TRAIL is increased 8 times because of the addition of the short peptide. […] There is a positive correction between the difference of the apoptosis-inducing to these tumor cells between NGR-L-TRAIL and TRAIL and the expression and the abundance of the CD13 molecule on the surface of tumor cell. […] The NGR domain from NGR-L-TRAIL can direct the protein of TRAIL variant to the surface of target cell to enrichment on the cell surface. […]

In experiment [2] the test system is COLO-205 cells. Nature of the experiment: Cell apoptosis by double staining of Annexin V and propidium iodide, COLO-205. The experiment is classed as cell-based. The settings on record: COLO-205 cell. As for the experimental part:
as §1, §2

In experiment [3] the test system is HCT-15 tumor. Nature of the experiment: Anti-tumor effect in HCT-15 colon cancer model in nude mice. The experiment is classed as in vivo. The settings on record: HCT-15 model; 400 μg/day per mouse combining with CPT-11; 28th day. As for the experimental part:
The female nude mice bought from ShangHai Experiment Animal Center are 5-6 weeks old. The mouse tail intravenous injection of 100 μg of purified Asialo GM-1 antibody (Wako Chemicals Company, Japan) that is specific antibody blocking natural killer cells is carried out first. 24 hours later, 100 thousands of COLO-205, HT-15 and HT-29 colon cancer cells is subcutaneously vaccinated at the top right side of the back of a mouse. When the volume of tumor arrives 70 cubic millimeters, the mice are grouped randomly and treated. […] Hydrosoluble camptothecin CPT-11([…], trade name: Campto, from Pharmacia/Upjohn Company) is administrated by intravenous administration once a week, for twice in all. The recombinant protein and camptothecin are diluted by phosphate buffer. The volume of tumor is detected by vernier caliper and calculated according the formula: length is multiplied by the square of width and then is divided by 2.
The anti-tumor effect of tumor-targeted TRAIL used together with chemotherapeutic drug CPT-11 is researched in the present invention. Through COLO-205, HC-15 and HT-29 models of athymic nude mice, the anti-tumor effect of NGR-L-TRAIL used together with chemotherapeutic drug CPT-11 is researched, wherein, COLO-205, HC-15 are sensitive to TRAIL, and COLO-205 is most sensitive, and HT-29 is insensitive to TRAIL. […]

Experiment [4] deals with mutated Jurkat cells from FADD−/− and Caspase-−/−. Nature of the experiment: Apoptosis induction in mutated Jurkat cells. The experiment is classed as cell-based.

For “TRAIL: recombinant wild human TNF-related apoptosis-inducing ligand”, the “50% effective concentration (EC50) (inducing apoptosis)” value in experiment [1] was about 0.145 µg/mL. Moreover, the “50% effective concentration (inducing apoptosis)” value in experiment [2] was found to be 3.5 ng/mL. Further, the “tumor disappeared mice from the 10 administrated mice” value in experiment [3] was found to be 7. Moreover, the inducing apoptosis entry in experiment [4] is “cannot be detected”.

The values above are taken from patent US20130150566A1, “TUMOR-TARGETED TNF-RELATED APOPTOSIS-INDUCING LIGAND'S VARIANT AND THE APPLICATION THEREOF” (TARGETPHARMA LABORATORIES (CHANGZHOU) CO., LTD, priority 2011, published 2013).
